Test results: patent US7883888B2, “Peptides selectively lethal to malignant and transformed mammalian cells” (The Research Foundation —The State University of New York, priority 2000, dated 2011)

Columns and labels:
TUC-3 cells = test: TUC-3 transformed pancreatic cancer cells in culture treated with synthetic peptide; type: cell-based, rat; conditions: for EFFECT: Table 3, leader is SEQ ID NO:4
From the text: (§1) A line of rat pancreatic acinar cells (BMRPA.430) grown in culture was transformed with K-ras.

[1] = tested on: human cancer cells, including homozygously p53 gene-deleted; test: toxicity of subject peptides to human cancer cells; type: cell-based
Method: The following experiment was performed to compare effectiveness of subject peptides having the leader sequence attached to the amino terminal end.

[2] = tested on: non-malignant and non-transformed fibroblast cell lines; test: non-malignant, non-transformed fibroblast cell lines treated with synthetic peptide; type: cell-based, human; conditions: 100 μg/ml
HeLa cells = HeLa cells treated with synthetic peptide; type: cell-based; conditions: 100 μg/ml
[3] = tested on: human breast carcinoma cell lines; test: human breast carcinoma cell lines treated with synthetic peptide; type: cell-based; conditions: 100 μg/ml
Melanoma cells = Melanoma cells treated with synthetic peptide; type: cell-based; conditions: 100 μg/ml
BMRPA.430 cells = test: normal pancreatic acinar cells BMRPA.430 in culture treated with synthetic peptide; type: cell-based, rat; conditions: 50 μg/ml; normal cell line
From the text: as §1

[4] = tested on: non-malignant and non-transformed human breast cell lines; test: non-malignant, non-transformed human breast cell lines treated with synthetic peptide; type: cell-based; conditions: 100 μg/ml
[5] = tested on: pancreatic carcinoma cells BMRPA1. TUC-3; test: s.c. BMRPA1.TUC-3 xenotransplant in Nu/Nu mice, established tumors, osmotic pump delivery (Example II); type: in vivo
Method: Nu/Nu mice (Harlan Laboratories, Indianapolis, Ind., n=10) and weighing 20-22 g, were xenotransplanted subcutaneously (s.c.) with live pancreatic carcinoma cells BMRPA1. TUC-3 (1×10^6 cells/mouse) in the left hind region.
Each group was implanted s.c. with Alzet® osmotic pumps to deliver in a constant rate and over a defined period of 14 days a total volume of 0.095 ml volume of normal saline containing the respective peptide at a concentration of 20 mg/mouse. […] The pumps were filled according to the manufacturers guidelines and under sterile conditions The pumps were implanted s.c. on the left flank of the anaesthetized mice by creating a pocket underneath the mouse skin into which the tiny pumps were inserted. Each pocket was closed with a simple suture. From their inside chamber the pumps delivered continuously 0.25 μl/hr into each mouse. The mice were observed until they had recovered from the surgery when they were returned to the isolation ward of the animal facility. Since the animals were Nu/Nu mice and, thus, immuno-compromised they are highly susceptible when exposed to pathogens. Surgery and all preceding and post-surgical treatments were therefore performed in a sterile hood environment.

[6] = tested on: malignant or normal cells; test: control peptide with leader on malignant or normal cells; type: cell-based; conditions: leader SEQ ID NO:4 at carboxy terminal end of control peptide
From the text: When the leader sequence set forth in SEQ ID NO:4 was positioned at the carboxy terminal end of PNC29, a control protein having the following amino acid sequence: [sequence]

cultured cancer cells = cultured cancer cells treated with peptide without leader or with leader alone; type: cell-based; conditions: 100 μg/ml
Method: When cultured cancer cells were treated with a peptide with the primary structure of SEQ ID NO:1 without a leader sequence attached, at a dosage of 100 μg/ml, the cells were unaffected. Similarly, when cultured cancer cells were treated with leader sequence SEQ ID NO:4, the presently preferred leader sequence, at the same dosage, the cell were also unaffected.

For “PNC 21: p53 seq. 12-20 (PPLSQETFS) (SEQ ID NO: 2)-Leader; leader is KKWKMRRNQFWVKVQRG (SEQ ID NO:4) (PPLSQETFSKKWKMRRNQFWVKVQRG; amino acid residue 12-20 of human p53 protein; penetration leader sequence from antennapedia)”, the EFFECT (TUC-3 cells) was “Cytotoxic” and the “toxicity to a wide variety of human cancer cells” value [1] was “strongly toxic”.
“PNC 27: p53 seq. 12-26 (PPLSQETFSDLWKLL) (SEQ ID NO: 1)-Leader; leader is KKWKMRRNQFWVKVQRG (SEQ ID NO:4) (PPLSQETFSDLWKLLKKWKMRRNQFWVKVQRG; amino acid residue 12-26 of human p53 protein; penetration leader sequence from antennapedia)” was tested, and the “effect on non-malignant and non-transformed fibroblast cell lines” value [2] was “no effect”, the “death of TUC-3 cells” value (TUC-3 cells; 100 μg/ml) was “died within three to four days” and the EFFECT (TUC-3 cells) was “Cytotoxic”. The “cell death in HeLa cells” value (HeLa cells) was “cell death was observed”, the “cell death in human breast carcinoma cell lines” value [3] was “cell death was observed” and the “cell death in Melanoma cells” value (Melanoma cells) was “cell death was observed”. The “toxicity to a wide variety of human cancer cells” value [1] was “strongly toxic”, the “effect on BMRPA.430 cells” value (BMRPA.430 cells) was “not affected” and the “effect on non-malignant and non-transformed human breast cell lines” value [4] was “no effect”.
“PNC-29: control peptide of similar size, amino acid sequence MPFSTGKRIMLGE (SEQ ID NO: 25); in b48 with leader SEQ ID NO:4 at carboxy end (used as a control)” was tested, and the “effect on normal or tumor cells” value ([5]; control peptide, s.c. pump, 20 mg/mouse) was “no effect”, the tumor diameter ([5]; over the 2-week treatment and follow-up period) was 10 to 16 mm and the tumor growth ([5]; s.c. pump over 14 days, 20 mg/mouse, tumors 3 to 6 mm at start) was “kept growing at a continuous rate”. The “effect on malignant or normal cells” value [6] was “no effect”.
In the case of “SEQ ID NO:1 without a leader sequence attached: peptide PPLSQETFSDLWKLL (SEQ ID NO:1) without a leader sequence attached (amino acid residue 12-26 of human p53 protein)”, the “effect on cultured cancer cells” value (cultured cancer cells) is reported as “unaffected”.
In the case of “SEQ ID NO:4: penetratin leader sequence from antennapedia protein alone, KKWKMRRNQFWVKVQRG (penetration leader sequence from antennapedia)”, the “effect on cultured cancer cells” value (cultured cancer cells) is reported as “unaffected”.
